Data from patent publication US20090281049A1, “New use of ginsenoside compound-k in manufacturing medicaments” (priority 2006, published 2009).

Tests used:
Settings in all cases: 1 mg/kg po
[1] = tested on: carrageenan-induced acute inflammation in mice; assay: Carrageenan-induced paw edema in mice; assay type: in vivo, Kunming mice
[2] = tested on: carrageenan-induced acute inflammation in rats; assay: Carrageenan-induced paw edema in rats; assay type: in vivo, Rat, SD strain
Protocol: Animals were firstly divided into large dose group: 10 mg/kg, iv, medium dose group: 5 mg/kg, iv, small dose group: 2.5 mg/kg, iv, an Indomethacin group: 1 mg/kg, po and a blank control group: physiological saline 10 mg/kg, iv. The animals were administered by the foregoing method for 3 days. The volume of the right hind paw of the rats was measured using hydroplethismometer before inflammation induced. 1 hour after the last administration, 0.1 ml 1% carrageenan was injected into the plantar surface of the right hind paw in order to induce inflammation. The volume of the right hind paw of the rats was measured by hydroplethismometer every other hour thereafter respectively. Swell rate and inhibition rate were calculated by the same method as above. Differences among groups were compared with t test.

[3] = tested on: Adjuvant Arthritis in rats; assay: Preventive effect on adjuvant induced adjuvant arthritis in rats; assay type: in vivo, Rat, SD strain
Protocol: (§1) Freund's Adjuvant Complete, purchased from Sigma Company, was injected into the plantar surface of the right hind paw by 0.1 ml in order to induce inflammation in rats.
(§2) Animals were firstly divided into large dose group: 10 mg/kg, iv, medium dose group: 5 mg/kg, iv, small dose group: 2.5 mg/kg, iv, Indomethacin group: 1 mg/kg, po, Tripterygium Wilfordii Hook group: 1.5 mg/kg, po and blank control group: physiological saline 10 mg/kg, iv. The volume of the right hind paw of the rats was measured by using hydroplethismometer before inflammation induced. Then 0.1 ml Freund's Adjuvant Complete was injected into the plantar surface of the right hind paw in order to induce inflammation in rats. The rats were grouped by the foregoing division way in the succeeding day, and to be administered for 15 days. The volume of paw was measured in regular intervals. Swell rate and inhibition rate were calculated by the same method as the foregoing. Differences among groups were compared by t test.

[4] = tested on: Adjuvant Arthritis in rats; assay: Treatment effect on adjuvant induced adjuvant arthritis in rats; assay type: in vivo, Rat, SD strain
Protocol: as §1
as §2, with “1.5 mg/kg, po. and blank” for “1.5 mg/kg, po and blank”, “in rats. 20 days after inflammation induced, the rats were” for “in rats. The rats were”, “foregoing division method and to” for “foregoing division way in the succeeding day, and to”, “administered for 8 days. The” for “administered for 15 days. The”, “were calculated with the same” for “were calculated by the same”, “were compared with t test.” for “were compared by t test.”

COc1ccc2c(c1)c(CC(=O)O)c(C)n2C(=O)c1ccc(Cl)cc1 [Indomethacin, reference compound]
swell value ([1]; 0 h): 1.47 ± 0.14 mL
inhibition rate ([1]; 1 h): <2.39> %
swell rate ([1]; 1 h): (67.11 ± 17.30) %
swell value ([1]; 1 h): 2.44 ± 0.19 mL
inhibition rate ([1]; 2 h): <16.11> %
swell rate ([1]; 2 h): (60.95 ± 18.36) %
swell value ([1]; 2 h): 2.35 ± 0.20 mL
inhibition rate ([1]; 4 h): <36.57> %
swell rate ([1]; 4 h): (51.04 ± 14.09) %
swell value ([1]; 4 h): 2.21 ± 0.11 mL
inhibition rate ([1]; 6 h): <24.41> %
swell rate ([1]; 6 h): (55.36 ± 19.90) %
swell value ([1]; 6 h): 2.26 ± 0.11 mL
swell value ([2]; 0 h): 1.34 ± 0.15 mL
inhibition rate ([2]; 1 h): <4.23> %
swell rate ([2]; 1 h): (22.51 ± 10.19) %
swell value ([2]; 1 h): 1.68 ± 0.10 mL
inhibition rate ([2]; 2 h): <20.44> %
swell rate ([2]; 2 h): (25.65 ± 14.10) %
swell value ([2]; 2 h): 1.72 ± 0.16 mL
inhibition rate ([2]; 3 h): <20.17> %
swell rate ([2]; 3 h): (33.28 ± 13.54) %
swell value ([2]; 3 h): 1.82 ± 0.17 mL
inhibition rate ([2]; 4 h): <26.76> %
swell rate ([2]; 4 h): (28.45 ± 15.71) %
swell value ([2]; 4 h): 1.77 ± 0.22 mL
inhibition rate ([2]; 5 h): <37.84> %
swell rate ([2]; 5 h): (23.04 ± 11.45) %
swell value ([2]; 5 h): 1.69 ± 0.15 mL
swell value ([3]; 0 day): 1.23 ± 0.11 mL
inhibition rate ([3]; 2 day): <27.67> %
swell rate ([3]; 2 day): (52.34 ± 15.07) %
swell value ([3]; 2 day): 1.85 ± 0.09 mL
inhibition rate ([3]; 4 day): <20.69> %
swell rate ([3]; 4 day): (70.99 ± 17.35) %
swell value ([3]; 4 day): 2.08 ± 0.13 mL
inhibition rate ([3]; 6 day): <12.34> %
swell rate ([3]; 6 day): (78.32 ± 23.41) %
swell value ([3]; 6 day): 2.17 ± 0.17 mL
inhibition rate ([3]; 9 day): <4.11> %
swell rate ([3]; 9 day): (69.44 ± 27.12) %
swell value ([3]; 9 day): 2.06 ± 0.23 mL
inhibition rate ([3]; 11 day): <32.39> %
swell rate ([3]; 11 day): (52.68 ± 12.02) %
swell value ([3]; 11 day): 1.86 ± 0.13 mL
inhibition rate ([3]; 13 day): <35.93> %
swell rate ([3]; 13 day): (53.00 ± 15.57) %
swell value ([3]; 13 day): 1.86 ± 0.13 mL
inhibition rate ([3]; 15 day): <35.50> %
swell rate ([3]; 15 day): (52.00 ± 11.27) %
swell value ([3]; 15 day): 1.86 ± 0.13 mL
swell value ([4]; 0 day): 1.14 ± 0.05 mL
inhibition rate ([4]; 19 day): <18.65> %
swell rate ([4]; 19 day): (80.03 ± 17.69) %
swell value ([4]; 19 day): 2.04 ± 0.20 mL
inhibition rate ([4]; 21 day): <19.05> %
swell rate ([4]; 21 day): (85.98 ± 15.49) %
swell value ([4]; 21 day): 2.11 ± 0.17 mL
inhibition rate ([4]; 23 day): <19.09> %
swell rate ([4]; 23 day): (86.16 ± 15.90) %
swell value ([4]; 23 day): 2.11 ± 0.17 mL
inhibition rate ([4]; 26 day): <20.41> %
swell rate ([4]; 26 day): (89.32 ± 16.25) %
swell value ([4]; 26 day): 2.15 ± 0.16 mL
inhibition rate ([4]; 30 day): <12.14> %
swell rate ([4]; 30 day): (92.39 ± 20.26) %
swell value ([4]; 30 day): 2.18 ± 0.23 mL
